Measurements taken from patent publication US20260102401A1, “Combination Therapies” (MIRATI THERAPEUTICS, INC., priority 2022, published 2026).

Tested on: H2122 cells
Experiment: H2122 cell-line derived xenograft model, tumor volumes
Assay type: in vivo, nude/nude mice
Conditions: for tumor growth inhibition: Day 17, single agent, H2122 xenograft, 100 mg/kg Compound 478 or 50 mg/kg olaparib p.o. daily; for Average Tumor Volumes: H2122 tumor bearing mice, 100 mg/kg Compound 478 and/or 50 mg/kg olaparib p.o. daily
Procedure: Immunocompromised nude/nude mice were inoculated in the right hind flank with cells or patient derived tumor samples harboring a KRas G12C mutation. When tumor volumes reach ˜300 mm^3 in size, the mice were divided into four groups of 5 mice each. The first group was administered vehicle only. […] The fourth group was orally administered the single agent dose of the KRas G12C inhibitor in combination with the single agent dose of the PARP inhibitor at the matched schedule. The treatment period was 17 days. Tumor volumes were measured using a caliper every two-three days and tumor volumes are calculated by the formula: […].
For example, twenty nude/nude mice were inoculated in the right hind limb with 5×10^6 H2122 cells. When tumor volume reached ˜300 mm^3 (Study Day 1), 5 mice in each of the […] groups were administered p.o. daily for 32 days: vehicle only (10% Captisol in 50 mM citrate buffer pH5.0), 100 mg/kg of KRas G12C inhibitor Compound 478 (10% Captisol in 50 mM citrate buffer, pH 5.0), 50 mg/kg of the PARP inhibitor olaparib (10% Captisol in 50 mM citrate buffer, pH 5.0), or 100 mg/kg of KRas G12C inhibitor Compound 478 and 50 mg/kg of olaparib. Dosing stopped on day 17 for all groups due to large tumor growth in the vehicle and Olaparib only groups.

Compound	tumor growth inhibition	Average Tumor Volumes (Study Day 3)	Average Tumor Volumes (Study Day 6)	Average Tumor Volumes (Study Day 10)	Average Tumor Volumes (Study Day 13)	Average Tumor Volumes (Study Day 17)	Average Tumor Volumes (Study Day −1 (before dosing))
O=C(c1cc(Cc2n[nH]c(=O)c3ccccc23)ccc1F)N1CCN(C(=O)C2CC2)CC1 [Olaparib, 4-[[3-[4-(cyclopropanecarbonyl)piperazine-1-carbonyl]-4-fluorophenyl]methyl]-2H-phthalazin-1-one]	0%	451.342 mm^3	558.15 mm^3	776.514 mm^3	848.664 mm^3	1058.96 mm^3	292.194 mm^3
C=C(F)C(=O)N1CCN(c2nc(OC[C@@H]3CCCN3C)nc3c2CCN(c2cccc4cccc(Cl)c24)C3)C[C@@H]1CC#N [Compound 478, adagrasib]	89%	290.578 mm^3	301.744 mm^3	326.222 mm^3	345.38 mm^3	360.308 mm^3	284.794 mm^3
